Consider one compound from patent US20090163577A1, “METHODS AND COMPOSITIONS FOR ANTAGONIZING ANTI-APOPTOTIC Bcl-2-FAMILY PROTEINS” (Burnham Institute for Medical Research, priority 2007, published 2009).

For one test, the target named is T1, Bcl-XL (Homo sapiens, UniProt Q07817).
T1 construct: lacking their C-terminal transmembrane domains (last 20 amino-acids) (“ΔTM”); made in house; host or cells: E. coli XL-1 Blue (pGEX 4T-1)
Put plainly: FPA competitive FITC-Bid BH3 peptide displacement, Bcl-XL. Type of test: binding. To be noted: 100 nM GST-Bcl-XL, 5 nM FITC-Bid BH3 peptide, read-out: IC50 (μM) for Gambogic acid. From the text:
(§1) (A) Structure of gambogic acid.
(§2) Fluorescence Polarization Assays (FPAs).
(§3) Competitive Peptide Displacement Assays.

The next test has as its target T2, Bcl-W (Homo sapiens, UniProt Q92843).
T2 construct: lacking their C-terminal transmembrane domains (last 20 amino-acids) (“ΔTM”); made in house; host or cells: E. coli XL-1 Blue (pGEX 4T-1)
Kind of test: FPA competitive FITC-Bid BH3 peptide displacement, Bcl-W. Type of test: binding. To be noted: 100 nM GST-Bcl-W, 5 nM FITC-Bid BH3 peptide, read-out: IC50 (μM) for Gambogic acid.
From the text: as §1, §2, §3

The target in another test is T3, Mcl-1 (Homo sapiens, UniProt Q07820).
T3 construct: lacking their C-terminal transmembrane domains (last 20 amino-acids) (“ΔTM”); made in house; host or cells: E. coli XL-1 Blue (pGEX 4T-1)
T3 sequence (Q07820 1-330 limits assumed): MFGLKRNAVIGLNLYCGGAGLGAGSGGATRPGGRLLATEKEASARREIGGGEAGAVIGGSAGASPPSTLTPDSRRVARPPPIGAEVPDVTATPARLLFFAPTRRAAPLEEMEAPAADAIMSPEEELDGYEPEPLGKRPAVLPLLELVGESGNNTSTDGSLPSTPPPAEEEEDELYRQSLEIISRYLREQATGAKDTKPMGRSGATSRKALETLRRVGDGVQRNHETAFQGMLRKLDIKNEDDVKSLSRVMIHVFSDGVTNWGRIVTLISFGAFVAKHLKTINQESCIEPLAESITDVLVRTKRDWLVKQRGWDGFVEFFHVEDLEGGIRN
Put plainly: FPA competitive FITC-Bid BH3 peptide displacement, Mcl-1. Type of test: binding. To be noted: 100 nM GST-Mcl-1, 5 nM FITC-Bid BH3 peptide, read-out: IC50 (μM) for Gambogic acid.
From the text: as §1, §2, §3

The next test concerns the target T4, GST-Bcl-XL (Homo sapiens, UniProt Q07817).
T4 construct: lacking their C-terminal transmembrane domains (last 20 amino-acids) (“ΔTM”); made in house; host or cells: E. coli XL-1 Blue (pGEX 4T-1)
Put plainly: TR-FRET assay, FITC-Bad BH3 peptide binding to GST-Bcl-XL. To be noted: 10 nM GST-Bcl-XL, 10 nM FITC-Bad BH3 peptide, read-out: apparent IC50, inhibition of FITC-Bad BH3 peptide binding. The method, then: (A) Binding of GST-Bcl-XL to FITC-BH3 peptide was assayed by TR-FRET. The final reaction mixtures contain 10 nM of FITC-Bad BH3 peptide, 2 nM of anti-GST-Turbium, and various concentrations of GST-Bcl-XL proteins in PBS buffer containing 0.005% Tween 20. (B) Analysis of GA competition with BH3 peptide for Bcl-XL binding by TR-FRET. Reaction mixtures of final 20 μl volume contain 2 μl of various concentrations of GA with 10 nM FITC-Bad BH3 peptide, 2 nM anti-GST-Terbium, and 10 nM GST-Bcl-XL protein in PBS buffer containing 0.005% Tween 20. The mixtures are incubated for 30 min at room temperature. TR-FRET signals were measured using excitation at 330 nm, emission for FITC signal at 490 nm, and emission for terbium signal at 520 nm. Data are presented as 520 nm/490 nm ratio (mean±std dev; n=3).
Time-Resolved-Fluorescence Resonance Energy Transfer (TR-FRET) Assays. For TR-FRET assays, GST-Bcl-XL and anti-GST-terbium (Invitrogen) were mixed together with the FITC-Bad BH3 peptide in PBS containing 0.005% tween 20 in 96 well plates in a total volume of 20 μl per well. […] TR-FRET signals were measured with a SpectraMax M5 plate reader (Molecular Devices) using the following settings: excitation at 330 nm, emission for FITC signal at 490 nm, and emission for terbium signal at 520 nm. […]
(In general: In TR-FRET formats the signal depends on donor and acceptor labels being close together.)

Test [1] has as its system prostate cancer cell line PPC1. Put plainly: Pro-caspase-3 processing, immunoblot, PPC1. Type of test: cell-based. To be noted: PPC1, 20 hrs, 0 to 10 μM. The method, then:
To determine GA's affect on processing of pro-caspase-3, a marker of apoptosis, cells of the prostate cancer cell line PPC1 were treated with gambogic acid at concentrations from 0 to 10 μM. After 20 hrs, the cells were collected and the cell lysates were analyzed by SDS-PAGE/immunoblotting using anti-caspase 3 antibody. GA induced clearly detectable proteolytic processing of pro-caspase-3 at concentrations≧2 μM.
Background: Immunoblotting shows a protein as a band on a membrane.

A further test deals with bax−/− bak−/− MEFs. Kind of test: Cytotoxicity in bax-/- bak-/- MEFs. The class given is cell-based, mouse. To be noted: 20 hrs; listed as GA.
The subject of the next test is tumor cell lines. To be noted: tumor cell lines in culture; cited from earlier work.
Test [2] relates to Bax, Bcl-2, transferrin receptor. To be noted: cited from earlier work.
Another test concerns dividing cells. To be noted: cited from earlier work.

“Also recorded” adds a separate entry of the source. Some results are limits rather than exact numbers.

T1 sequence (Q07817 1-213 limits assumed): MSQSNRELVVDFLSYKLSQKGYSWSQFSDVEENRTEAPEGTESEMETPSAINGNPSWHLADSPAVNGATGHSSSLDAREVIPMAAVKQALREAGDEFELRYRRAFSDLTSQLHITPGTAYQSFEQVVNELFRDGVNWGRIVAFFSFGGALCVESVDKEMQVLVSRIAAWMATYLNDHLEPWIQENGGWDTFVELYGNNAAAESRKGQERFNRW
T4 sequence (Q07817 1-213 limits assumed): as above
T2 sequence (Q92843 1-173 limits assumed): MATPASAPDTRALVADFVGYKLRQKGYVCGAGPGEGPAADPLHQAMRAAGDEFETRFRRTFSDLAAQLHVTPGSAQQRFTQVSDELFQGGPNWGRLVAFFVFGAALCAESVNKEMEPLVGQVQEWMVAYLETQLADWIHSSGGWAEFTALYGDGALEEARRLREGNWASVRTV

Take `CC(C)=CCC[C@]1(C)C=Cc2c(O)c3c(c(CC=C(C)C)c2O1)O[C@]12C(=C[C@@H]4C[C@H]1C(C)(C)O[C@@]2(C/C=C(/C)C(=O)O)C4=O)C3=O` [Gambogic acid]: the half-inhibitory concentration (IC50) (commonly the concentration at which inhibition is half-maximal) at Bcl-XL came out at 1.47 µM; at Bcl-W, 2.02 µM; at Mcl-1 it was 0.79 µM; at GST-Bcl-XL it was 1500 nM. Moreover, in [1], the “concentration giving clearly detectable proteolytic processing of pro-caspase-3” value was at least 2 µM. Further, the “killing of bax−/− bak−/− MEFs” value with bax−/− bak−/− MEFs was “killed; also recorded: retained cytotoxic activity”. In the test with tumor cell lines, the “concentration required for killing 50% of cells (LD50)” value was about 1 µM. In addition, the Bax protein levels result in test [2] is recorded as “increases in Bax protein levels”. The Bcl-2 protein levels result in test [2] is recorded as “reductions in Bcl-2 protein levels”. In addition, the transferrin receptor internalization result in [2] was “suppressing transferring receptor internalization”. The cell cycle arrest result with dividing cells is listed as “induces G2/M-phase arrest”.
